This assay has as its system explants of adipose tissues. The experiment in a line: Assay of lipolytic activity: free fatty acids released into the culture medium from adipose tissue explants kept alive. The class given is cell-based. Particulars: caffeine at a concentration of 0.01% (100 μg/ml).

SMILES strings stand for the structures. Entries after “also recorded” stand apart in the source; their conditions may differ.

Protocol: The different extracts are incorporated into the culture medium under the conditions described below.
After a contact time of 8 days, the activity is evaluated by assaying the fatty acids released into the culture medium.
Preparation of 9 explants of adipose tissues and keeping them alive in BEM (BIO-EC's Explants Medium)
Division of the explants into 3 batches of 3 explants: • a reference batch, in the presence of the culture medium • a batch treated with caffeine as a positive reference • a batch treated with an extract according to the invention
At D0 the explants are kept alive in 2 ml of culture medium in which the test extract is incorporated.
This treatment is repeated at D2, D4 and D6.
At D2, D4, D6 and D8 the culture medium is sampled. For each explant the media sampled at D2, D4, D6 and D8 are combined in the same tube and stored at −20° C. for assaying the fatty acids present in the medium.
After extraction of the culture medium, the free fatty acids present therein are separated off and assayed by high performance thin layer chromatography.
The lipolytic activity is evaluated by determining the proportions of free fatty acids released into the culture medium.

As to `Cn1c(=O)c2c(ncn2C)n(C)c1=O` [Caffeine, caffeine], the lipolytic effect entry is given as “no longer having a lipolytic effect; also recorded: no longer active”.

The values are drawn from patent US20080038290A1, “Cosmetic slimming composition containing an extract of biomass of the alga neochloris oleoabundans” (LVMH RECHERCHE, priority 2006, published 2008).
